Marks after values point to notes of the source that are not given here.
What was measured:
[1] = target: electric eel AChE [EeAChE] (Electrophorus electricus, UniProt O42275); assay: biochemical; assay type: biochemical; conditions: for IC50: Electric eel AChE, Ellman method, read-out: IC50(nM) ± SD AChE (EeAChE); for SI: Selectivity Index = EqBChE IC50/EeAChE IC50
Method: (§1) The anticholinesterase activity was determined using Ellman’s method, adapted as follows. […] Subsequently, 60 μL of 5,5′-dithiobis(2-nitrobenzoic acid) (DTNB, 1.1 mM) and 30 μL of enzyme solution (electric eel AChE [EeAChE], human AChE [hAChE], or equine serum BChE [EqBChE], 0.20 U/mL) containing 1 mg/mL bovine serum albumin (BSA) were added. […] Enzyme activity was calculated as the percentage relative to untreated controls, subtracting the blank reference. IC50 values were derived via non-linear regression analysis of dose–response curves (Figure S4) using GraphPad Prism v7.0.

[2] = target: T1, equine serum BChE [EqBChE] (Equus caballus, UniProt P81908); assay: biochemical; conditions: Ellman method, read-out: IC50(nM) ± SD BChE (EqBChE)
T1 construct: equine serum BChE [EqBChE]; from tissue; host or cells: equine serum
T1 sequence (P81908 whole entry): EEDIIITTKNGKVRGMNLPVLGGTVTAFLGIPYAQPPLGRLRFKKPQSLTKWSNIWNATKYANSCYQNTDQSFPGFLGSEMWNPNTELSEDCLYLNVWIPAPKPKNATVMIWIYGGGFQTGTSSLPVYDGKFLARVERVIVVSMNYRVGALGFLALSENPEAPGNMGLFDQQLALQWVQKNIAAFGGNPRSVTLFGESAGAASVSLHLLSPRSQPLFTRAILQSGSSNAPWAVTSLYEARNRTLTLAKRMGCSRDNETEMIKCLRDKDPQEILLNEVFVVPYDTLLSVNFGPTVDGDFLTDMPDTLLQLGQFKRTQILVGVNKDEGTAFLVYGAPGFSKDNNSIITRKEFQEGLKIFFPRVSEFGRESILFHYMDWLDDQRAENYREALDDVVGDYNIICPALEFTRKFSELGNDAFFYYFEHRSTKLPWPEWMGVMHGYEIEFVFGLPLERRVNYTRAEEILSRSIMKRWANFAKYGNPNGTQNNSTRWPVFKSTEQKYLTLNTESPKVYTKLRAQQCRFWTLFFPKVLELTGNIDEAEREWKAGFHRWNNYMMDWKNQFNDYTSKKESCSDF
Method: as §1

[3] = system: H2O2-damaged SH-SY5Y cells; assay: In vitro neuroprotection against H2O2 in SH-SY5Y (MTT); conditions: for viability at 12.5 µM: Homo sapiens, SH-SY5Y, read-out: Cell viability (% of control)
Method: For the neuroprotection assay, the cells previously cultured (Section 3.4.1) were seeded in 96-well plates at a density of 5 × 10^4 cells/well in a volume of 200 µL. The plates were incubated at 37 °C containing 5% CO2 for 24 h. After 24 h, the medium was replaced with the test solutions. […] Finally, the test solutions were removed, the cells were washed with PBS pH 7.4, and the H2O2 solution was added and maintained in contact with the cells for 24 h. After 24 h exposure, the neuroprotective capacity was assessed through cell viability using the MTT assay protocol previously described in Section 3.4.3 [52, 53].

hH3R = target: T2, hH3R (Homo sapiens, UniProt Q9Y5N1); assay: H3R radioligand displacement assay ([3H]-N-α-methylhistamine); assay type: binding; conditions: 95% confidence interval in brackets; HEK-293 membranes
T2 construct: expressed in transfected cells; host or cells: HEK-293
T2 sequence (Q9Y5N1 whole entry): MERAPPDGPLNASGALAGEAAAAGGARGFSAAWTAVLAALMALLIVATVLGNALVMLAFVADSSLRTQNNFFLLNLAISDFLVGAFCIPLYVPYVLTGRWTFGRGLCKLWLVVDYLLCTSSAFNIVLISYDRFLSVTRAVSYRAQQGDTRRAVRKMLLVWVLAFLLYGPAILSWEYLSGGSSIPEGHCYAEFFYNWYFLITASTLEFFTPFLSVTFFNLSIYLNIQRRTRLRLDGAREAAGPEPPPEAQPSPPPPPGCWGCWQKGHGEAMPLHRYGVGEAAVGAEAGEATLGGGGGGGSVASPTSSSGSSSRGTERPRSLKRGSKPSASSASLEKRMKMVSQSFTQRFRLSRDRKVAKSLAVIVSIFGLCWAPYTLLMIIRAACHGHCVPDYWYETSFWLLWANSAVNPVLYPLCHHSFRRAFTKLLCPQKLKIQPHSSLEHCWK
Method: HEK-293 cells (human embryonic kidney cells) stably expressing hH3R were washed and harvested in PBS buffer (phosphate-buffered saline). […] The cell membrane homogenate was centrifuged (20,000× g, 20 min, 4 °C), and the resulting pellet was resuspended in binding buffer and stored at −80 °C until use.
Prior to experiments, the cell membranes were thawed, homogenized by sonication at 4 °C, and kept in ice-cold binding buffer. Crude membrane extracts (20 μg/well in a final volume of 0.2 mL binding buffer) were incubated with [^3H]-N-α-methylhistamine (2 nM; 78.3 Ci/mmol) and varying concentrations of test compounds. Assays were performed in duplicate, with compound concentrations ranging from 0.01 nM to 100 μM. Incubations proceeded for 90 min at room temperature under continuous agitation.
Bound radioligand was separated from free radioligand by filtration through GF/B filters pretreated with 0.3% (w/v) polyethyleneimine, using a cell harvester. Radioactivity was quantified by liquid scintillation counting. Data were analyzed using GraphPad Prism v8 (San Diego, CA, USA) software, employing non-linear regression analysis.

hMAO-A = target: T3, hMAO-A (Homo sapiens, UniProt P21397); assay: MAO-A inhibition, fluorometric Amplex Red assay; assay type: biochemical
T3 construct: purchased Sigma-Aldrich, Gillingham, UK
T3 sequence (P21397 1-527): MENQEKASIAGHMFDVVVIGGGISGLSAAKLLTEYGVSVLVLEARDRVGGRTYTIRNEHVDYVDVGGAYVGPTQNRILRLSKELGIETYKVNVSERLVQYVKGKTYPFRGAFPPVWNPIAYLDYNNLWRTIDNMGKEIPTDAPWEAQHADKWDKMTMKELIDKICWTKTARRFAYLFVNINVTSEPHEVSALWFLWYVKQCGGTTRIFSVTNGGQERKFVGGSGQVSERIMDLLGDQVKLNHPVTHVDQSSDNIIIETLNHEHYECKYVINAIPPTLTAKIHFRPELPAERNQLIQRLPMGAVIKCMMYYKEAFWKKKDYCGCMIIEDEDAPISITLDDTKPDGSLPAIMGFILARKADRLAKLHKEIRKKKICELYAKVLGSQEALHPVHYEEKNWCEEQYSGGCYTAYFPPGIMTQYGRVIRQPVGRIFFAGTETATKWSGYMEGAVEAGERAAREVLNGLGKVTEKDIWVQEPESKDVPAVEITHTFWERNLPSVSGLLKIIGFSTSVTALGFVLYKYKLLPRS
Method: The activity of human recombinant membrane-bound monoamine oxidase isoforms A and B (MAO-A/B) (Sigma-Aldrich, Gillingham, UK) in 50 mM potassium phosphate buffer (pH 7.5) was determined by measuring hydrogen peroxide production coupled to the fluorescent dye Amplex Red (Sigma-Aldrich, UK) at a final concentration of 50 μM, in the presence of horseradish peroxidase (HRP, 2.5 U/mL). This coupling reaction generates the fluorescent product resorufin, which was quantified at 30 °C using a fluorescence plate reader. […].
(§2) Reactions were initiated by adding the substrate and dye after a 30 min preincubation of the inhibitor with the enzyme. Data were analyzed using a three-parameter equation in GraphPad Prism 7.0 (San Diego, USA). Each reported value represents the mean of at least two independent determinations.

hMAO-B = target: T4, hMAO-B (Homo sapiens, UniProt P27338); assay: biochemical; assay type: biochemical
T4 construct: purchased Sigma-Aldrich, Gillingham, UK
T4 sequence (P27338 1-520): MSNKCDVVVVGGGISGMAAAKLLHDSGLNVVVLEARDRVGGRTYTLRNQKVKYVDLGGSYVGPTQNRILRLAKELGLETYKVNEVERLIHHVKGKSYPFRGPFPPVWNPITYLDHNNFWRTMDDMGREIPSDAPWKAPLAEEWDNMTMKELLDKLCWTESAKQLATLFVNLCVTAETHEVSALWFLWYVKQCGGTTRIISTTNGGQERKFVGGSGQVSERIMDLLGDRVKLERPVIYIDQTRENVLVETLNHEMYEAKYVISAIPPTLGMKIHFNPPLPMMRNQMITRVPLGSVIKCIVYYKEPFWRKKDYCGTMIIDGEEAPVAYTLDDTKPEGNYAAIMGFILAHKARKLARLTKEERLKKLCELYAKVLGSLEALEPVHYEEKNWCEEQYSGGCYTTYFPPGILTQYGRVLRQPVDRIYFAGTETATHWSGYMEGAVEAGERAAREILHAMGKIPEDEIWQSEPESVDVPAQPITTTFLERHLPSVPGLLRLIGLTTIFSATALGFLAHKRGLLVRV
Method: The activity of human recombinant membrane-bound monoamine oxidase isoforms A and B (MAO-A/B) (Sigma-Aldrich, Gillingham, UK) in 50 mM potassium phosphate buffer (pH 7.5) was determined by measuring hydrogen peroxide production coupled to the fluorescent dye Amplex Red (Sigma-Aldrich, UK) at a final concentration of 50 μM, in the presence of horseradish peroxidase (HRP, 2.5 U/mL). This coupling reaction generates the fluorescent product resorufin, which was quantified at 30 °C using a fluorescence plate reader.
as §2

Sequence of electric eel AChE [EeAChE] (O42275 24-633): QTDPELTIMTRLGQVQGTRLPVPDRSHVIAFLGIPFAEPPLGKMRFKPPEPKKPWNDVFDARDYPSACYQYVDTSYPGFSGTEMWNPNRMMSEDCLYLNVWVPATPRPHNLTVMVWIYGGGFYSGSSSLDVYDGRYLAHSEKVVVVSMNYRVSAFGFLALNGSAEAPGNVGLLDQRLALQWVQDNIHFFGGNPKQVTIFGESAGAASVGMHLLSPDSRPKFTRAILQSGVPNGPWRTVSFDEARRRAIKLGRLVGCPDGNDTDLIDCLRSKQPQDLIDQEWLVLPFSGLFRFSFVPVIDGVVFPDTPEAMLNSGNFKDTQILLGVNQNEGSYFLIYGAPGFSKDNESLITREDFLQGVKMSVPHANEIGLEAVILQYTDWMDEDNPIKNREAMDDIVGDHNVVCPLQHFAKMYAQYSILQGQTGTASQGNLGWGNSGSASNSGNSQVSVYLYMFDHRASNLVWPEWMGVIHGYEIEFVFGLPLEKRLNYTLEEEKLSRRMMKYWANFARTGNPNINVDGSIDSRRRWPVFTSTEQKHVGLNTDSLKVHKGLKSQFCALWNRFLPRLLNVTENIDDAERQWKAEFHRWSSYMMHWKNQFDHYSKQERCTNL

Structure (SMILES)	IC50 [1] [nM]	SI [1]	IC50 [2] [nM]	viability at 12.5 µM [3] [%]	Ki (hH3R) [nM]	IC50 (hMAO-A; 95% confidence interval in brackets) [nM]	IC50 (hMAO-B) [nM]	MAO-B/A selectivity ratio (hMAO-B)	neuroprotection against H2O2-induced oxidative stress ([3]; 12.5 µM)	inhibition at 1 µM (hMAO-A; test concentration of 1 µM, read-out: Percentage of MAO-A inhibition ± SEM) [%]	inhibition at 1 µM (hMAO-B; test concentration of 1 µM, read-out: Percentage of MAO-B inhibition ± SEM) [%]
O=c1oc2cc(OCCCN3CCCCC3)ccc2cc1-c1cn(Cc2ccccc2)nn1 [Compound 1q, 3-(1-Benzyl-1H-1,2,3-triazol-4-yl)-7-(3-(piperidin-1-yl)propoxy)-2H-chromen-2-one]	1950 ± 86	~2 ^e,f	3560 ± 190	68	151	31100	1690	greater than 18 fold			
O=c1oc2cc(OCCN3CCCCC3)ccc2cc1-c1cn(Cc2ccccc2)nn1 [Compound 1h, 3-(1-Benzyl-1H-1,2,3-triazol-4-yl)-7-(2-(piperidin-1-yl)ethoxy)-2H-chromen-2-one]	6.03 ± 0.62	632	3790 ± 400	88	558				neuroprotective effects	5.2 ± 1.9	11.3 ± 1.9
